# Results as given in patent publication US12600709B2, “Nonpeptide somatostatin type 5 receptor agonists and uses thereof” (Crinetics Pharmaceuticals, Inc., priority 2019, dated 2026).
# Like-named read-outs stand apart in the source and are kept apart here.
# Assays:
# [1] = molecular target: T1, human somatostatin receptor subtype 5 (Homo sapiens, UniProt P35346); assay: cAMP assay for SST5R (inhibition of cAMP in CHO-K1 cells); format: cell-based; settings: for EC50: inhibition of cAMP via human SST5 receptor, read-out: SST5 potency; for Fold selectivity for SST5 vs SST2: class symbols, SST5 receptor over SST2 receptor
# T1 construct: expressed in transfected cells
# Outline: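 CHO-K1 cells stably expressing human SSTR5 were treated 20 min at 37 °C with compounds plus 1.6 μM NKH477 in HBSS, 0.5 mM HEPES pH 7.4, 0.1% BSA, 0.2 mM IBMX. Lysate cAMP measured by HTRF against a standard curve; EC50 from cAMP-versus-concentration plots.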
# [2] = molecular target: T2, human somatostatin receptor subtype 2 (Homo sapiens, UniProt P30874); assay: cAMP assay for SST2R (inhibition of cAMP in CHO-K1 cells); format: cell-based; settings: Table B; inhibition of cAMP via human SST2 receptor; read-out: SST2 potency
# T2 construct: expressed in transfected cells
# Outline: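 CHO-K1 cells stably expressing human SSTR2, plated 4 days prior, treated 20 min at 37° C with 1.6 μM NKH477 plus compound dilutions in HBSS/HEPES pH 7.4/0.1% BSA/0.2 mM IBMX. Lysate cAMP measured by HTRF against standard curve; EC50 from concentration-response.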
# T2 sequence (P30874 whole entry): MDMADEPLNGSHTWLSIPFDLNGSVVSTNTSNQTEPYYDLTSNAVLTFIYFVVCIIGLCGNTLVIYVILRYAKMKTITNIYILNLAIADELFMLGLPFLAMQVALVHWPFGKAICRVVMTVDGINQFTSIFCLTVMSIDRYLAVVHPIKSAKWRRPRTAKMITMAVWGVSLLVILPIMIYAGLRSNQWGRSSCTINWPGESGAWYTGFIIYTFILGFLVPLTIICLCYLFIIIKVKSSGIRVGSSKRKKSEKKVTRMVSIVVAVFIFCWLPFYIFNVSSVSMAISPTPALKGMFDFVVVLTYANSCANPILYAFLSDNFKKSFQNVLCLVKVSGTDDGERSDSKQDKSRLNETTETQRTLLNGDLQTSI
# T1 sequence (P35346 whole entry): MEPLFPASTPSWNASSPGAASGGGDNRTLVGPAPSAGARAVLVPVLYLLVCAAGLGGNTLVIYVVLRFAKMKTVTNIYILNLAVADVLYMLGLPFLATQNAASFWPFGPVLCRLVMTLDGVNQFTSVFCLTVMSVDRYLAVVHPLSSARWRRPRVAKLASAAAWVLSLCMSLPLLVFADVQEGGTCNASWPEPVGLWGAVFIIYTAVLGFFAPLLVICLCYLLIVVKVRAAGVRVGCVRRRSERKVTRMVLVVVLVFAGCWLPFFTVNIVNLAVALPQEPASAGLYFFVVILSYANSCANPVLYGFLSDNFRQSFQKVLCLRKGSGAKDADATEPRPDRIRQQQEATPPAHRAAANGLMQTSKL
EC50 ([1]; Table A) [nM],Fold selectivity for SST5 vs SST2 ([1]; Table B),EC50 ([1]; Table B) [nM],EC50 [2] [nM],SMILES
< 10,+++ (+++=>500),< 10,> 1000,"C[C@H](NC(=O)c1cnc(C#N)c(-c2cc(F)cc(F)c2)c1N1CC[C@](C)(N)C1)c1ccccn1 [1-103, 4-[(3S)-3-amino-3-methylpyrrolidin-1-yl]-6-cyano-5-(3,5-difluorophenyl)-N-[(1S)-1-(pyridin-2-yl)ethyl]pyridine-3-carboxamide]"
< 10,+++ (+++=>500),< 10,> 1000,"Cn1nccc1CNC(=O)c1cnc(C#N)c(-c2cc(F)cc(F)c2)c1N1CC[C@](C)(N)C1 [1-104, 4-[(3S)-3-amino-3-methylpyrrolidin-1-yl]-6-cyano-5-(3,5-difluorophenyl)-N-[(1-methyl-1H-pyrazol-5-yl)methyl]pyridine-3-carboxamide]"
< 10,+++ (+++=>500),< 10,> 1000,"C[C@]1(N)CCN(c2c(C(=O)NCc3ncccn3)cnc(C#N)c2-c2cc(F)cc(F)c2)C1 [1-108, 4-[(3S)-3-amino-3-methylpyrrolidin-1-yl]-6-cyano-5-(3,5-difluorophenyl)-N-[(pyrimidin-2-yl)methyl]pyridine-3-carboxamide]"
< 10,+++ (+++=>500),< 10,> 1000,"N#Cc1ncc(C(=O)NCCCc2ccccc2)c(N2CC[C@H](N)C2)c1-c1cc(F)cc(F)c1 [1-110, 4-[(3S)-3-aminopyrrolidin-1-yl]-6-cyano-5-(3,5-difluorophenyl)-N-(3-phenylpropyl)pyridine-3-carboxamide]"
< 10,+++ (+++=>500),< 10,100 to 1000,"C[C@]1(N)CCN(c2c(C(=O)NC3CCCCC3)cncc2-c2cc(F)cc(F)c2)C1 [1-112, 4-[(3S)-3-amino-3-methylpyrrolidin-1-yl]-N-cyclohexyl-5-(3,5-difluorophenyl)pyridine-3-carboxamide]"
< 10,+++ (+++=>500),< 10,> 1000,"CC1(C)CC(NC(=O)c2cnc(C#N)c(-c3cc(F)cc(F)c3)c2N2CC[C@](C)(N)C2)CCO1 (stereo partly drawn) [1-113, 4-[(3S)-3-amino-3-methylpyrrolidin-1-yl]-6-cyano-5-(3,5-difluorophenyl)-N-(2,2-dimethyloxan-4-yl)pyridine-3-carboxamide]"
< 10,+++ (+++=>500),< 10,> 1000,"C[C@]1(N)CCN(c2c(C(=O)NCc3ccon3)cnc(C#N)c2-c2cc(F)cc(F)c2)C1 [1-114, 4-[(3S)-3-amino-3-methylpyrrolidin-1-yl]-6-cyano-5-(3,5-difluorophenyl)-N-[(1,2-oxazol-3-yl)methyl]pyridine-3-carboxamide]"
< 10,+++ (+++=>500),< 10,> 1000,"C[C@]1(N)CCN(c2c(C(=O)NCc3ccccc3O)cnc(C#N)c2-c2cc(F)cc(F)c2)C1 [1-115, 4-[(3S)-3-amino-3-methylpyrrolidin-1-yl]-6-cyano-5-(3,5-difluorophenyl)-N-[(2-hydroxyphenyl)methyl]pyridine-3-carboxamide]"
< 10,+++ (+++=>500),< 10,> 1000,"COC[C@@]1(N)CCN(c2c(C(=O)N[C@@H](C)C3CC3)cnc(C#N)c2-c2cc(F)cc(F)c2)C1 [1-116, 4-[(3R)-3-amino-3-(methoxymethyl)pyrrolidin-1-yl]-6-cyano-N-[(1S)-1-cyclopropylethyl]-5-(3,5-difluorophenyl)pyridine-3-carboxamide]"
< 10,+++ (+++=>500),< 10,> 1000,"C[C@H](NC(=O)c1cnc(C#N)c(-c2cc(F)cc(F)c2)c1N1CC[C@](N)(CC(F)F)C1)C1CC1 [1-118, 4-[(3S)-3-amino-3-(2,2-difluoroethyl)pyrrolidin-1-yl]-6-cyano-N-[(1S)-1-cyclopropylethyl]-5-(3,5-difluorophenyl)pyridine-3-carboxamide]"
< 10,+++ (+++=>500),< 10,10 to 100,"C[C@H](NC(=O)c1cnc(C#N)c(-c2cccc(OC(F)F)c2)c1N1CC[C@](C)(N)C1)C1CC1 [1-120, 4-[(3S)-3-amino-3-methylpyrrolidin-1-yl]-6-cyano-N-[(1S)-1-cyclopropylethyl]-5-[3-(difluoromethoxy)phenyl]pyridine-3-carboxamide]"
< 10,+++ (+++=>500),< 10,> 1000,"C[C@H](NC(=O)c1cnc(C#N)c(-c2ccn(C)n2)c1N1CC[C@](C)(N)C1)C1CC1 [1-121, 4-[(3S)-3-amino-3-methylpyrrolidin-1-yl]-6-cyano-N-[(1S)-1-cyclopropylethyl]-5-(1-methyl-1H-pyrazol-3-yl)pyridine-3-carboxamide]"
< 10,+++ (+++=>500),< 10,100 to 1000,"Cc1ncc(C(=O)N[C@@H](C)C2CC2)c(N2CC[C@](C)(N)C2)c1-c1cc(F)cc(F)c1 [1-122, 4-[(3S)-3-amino-3-methylpyrrolidin-1-yl]-N-[(1S)-1-cyclopropylethyl]-5-(3,5-difluorophenyl)-6-methylpyridine-3-carboxamide]"
< 10,+++ (+++=>500),< 10,100 to 1000,"Cc1ncc(C(=O)N[C@@H](C)C2CC2)c(N2CC[C@](C)(N)C2)c1-c1cc(F)cc(C#N)c1 [1-123, 4-[(3S)-3-amino-3-methylpyrrolidin-1-yl]-5-(3-cyano-5-fluorophenyl)-N-[(1S)-1-cyclopropylethyl]-6-methylpyridine-3-carboxamide]"
< 10,+++ (+++=>500),< 10,100 to 1000,"Cc1ncc(C(=O)N[C@@H](C)C2CC2)c(N2CC[C@](C)(N)C2)c1-c1cccc(F)c1 [1-124, 4-[(3S)-3-amino-3-methylpyrrolidin-1-yl]-N-[(1S)-1-cyclopropylethyl]-5-(3-fluorophenyl)-6-methylpyridine-3-carboxamide]"
< 10,+++ (+++=>500),< 10,10 to 100,"Cc1ncc(C(=O)N[C@@H](C)C2CC2)c(N2CC[C@](C)(N)C2)c1-c1cc(F)cc(Cl)c1 [1-125, 4-[(3S)-3-amino-3-methylpyrrolidin-1-yl]-5-(3-chloro-5-fluorophenyl)-N-[(1S)-1-cyclopropylethyl]-6-methylpyridine-3-carboxamide]"
< 10,+++ (+++=>500),< 10,> 1000,"CC(NC(=O)c1cnc(C#N)c(-c2cc(F)cc(F)c2)c1N1CC[C@](C)(N)C1)c1ncccn1 (stereo partly drawn) [1-126, 4-[(3S)-3-amino-3-methylpyrrolidin-1-yl]-6-cyano-5-(3,5-difluorophenyl)-N-[1-(pyrimidin-2-yl)ethyl]pyridine-3-carboxamide]"
< 10,+++ (+++=>500),< 10,100 to 1000,"C[C@H](NC(=O)c1cnc(C#N)c(-c2cccc(OC(F)(F)F)c2)c1N1CC[C@](C)(N)C1)C1CC1 [1-127, 4-[(3S)-3-amino-3-methylpyrrolidin-1-yl]-6-cyano-N-[(1S)-1-cyclopropylethyl]-5-[3-(trifluoromethoxy)phenyl]pyridine-3-carboxamide]"
< 10,+++ (+++=>500),< 10,100 to 1000,"Cc1ncc(-c2c(C#N)ncc(C(=O)N[C@@H](C)C3CC3)c2N2CC[C@](C)(N)C2)s1 [1-128, 4-[(3S)-3-amino-3-methylpyrrolidin-1-yl]-6-cyano-N-[(1S)-1-cyclopropylethyl]-5-(2-methyl-1,3-thiazol-5-yl)pyridine-3-carboxamide]"
< 10,+++ (+++=>500),< 10,100 to 1000,"C[C@H](NC(=O)c1cnc(C#N)c(-c2ccnc(C(F)(F)F)c2)c1N1CC[C@](C)(N)C1)C1CC1 [1-129, 4-[(3S)-3-amino-3-methylpyrrolidin-1-yl]-2-cyano-N-[(1S)-1-cyclopropylethyl]-2′-(trifluoromethyl)-[3,4′-bipyridine]-5-carboxamide]"
< 10,+++ (+++=>500),< 10,100 to 1000,"COc1ncc(C(=O)NC23CC(C2)C3)c(N2CC[C@](C)(N)C2)c1-c1cc(F)cc(F)c1 [1-130, 4-[(3S)-3-amino-3-methylpyrrolidin-1-yl]-N-{bicyclo[1.1.1]pentan-1-yl}-5-(3,5-difluorophenyl)-6-methoxypyridine-3-carboxamide]"
< 10,+++ (+++=>500),< 10,> 1000,"CC(NC(=O)c1cnc(C#N)c(-c2cc(F)cc(F)c2)c1N1CC[C@](C)(N)C1)c1ccon1 (stereo partly drawn) [1-132, 4-[(3S)-3-amino-3-methylpyrrolidin-1-yl]-6-cyano-5-(3,5-difluorophenyl)-N-[1-(1,2-oxazol-3-yl)ethyl]pyridine-3-carboxamide]"
